Assays:
Format in all cases: physicochemical
[1] = Heat aging / thermal stability of cured composition in oven at 150°C (durometer); conditions: in Acrylamide-polymer B; after 20 hours at 150°C in an oven
Excerpt: (§1) Compositions were made from Acrylamide-polymer B and various compounds which might be considered useful as photosensitization systems. These included P-1 = 2 hydroxy-2-methylphenylpropan-1-one (Darocur^TM 1173) P-2 = diethoxyacetophenone P-3 = (1-hydroxycyclohexyl)phenylmethanone (Irgacure^TM 184) P-4 = benzophenone P-5 = a 50/50 weight mixture of P-1 and diisopropylaminoethanol. Each of the photosensitization systems were used in an amount of one weight percent except P-5 which was used in an amount of two weight percent. The weight percentage was based on the weight of Acrylamide-blend B. Each of the compositions were cured for a defined period of time by exposure to ultraviolet radiation on the LCU described in Example 2, set for 3 seconds per pass which measured about 400 mJ/cm² using a Light Bug. The hardness of the cured composition was measured by using equipment manufactured by Instrument MFG Co. on the Shore OO durometer scale using a 0.25 inch thick section of the cured material. The durometer was determined initially, after heat aging for 20 hours at 150°C. in an oven and after 20 hours in an autoclave at 12 1°C. and 15 psi pressure.
(§2) A gel composition was prepared by mixing 98 parts of Acrylamide-blend E, 1 part of (1-hydroxycyclohexyl)phenylmethanone and 1 part of a heat stability additive. Sodium and potassium contents were determined on uncured samples of the gel composition by using flame photometry of acid ashed gel composition after removal of silica by treatment with hydrofluoric acid. The amount of sodium and potassium were each less than 2 ppm. […] The irradiation dose was determined by using an IL 390 Light Bug manufactured by International Light of (Newburyport, Mass.). […] As determined by ASTM-D150, the dielectric constant at 100 Hz was 3.0 and at 100,000 Hz was 3.0. As determined by ASTM-D150, the dissipation factor at 100 Hz was 0.006 and at 100,000 Hz was 0.002. The glass transition temperature was -113°C. and there was no melting transition temperature as determined by differential scanning calorimetry. The thermal stability was determined by placing a sample of the cured gel composition in a forced air oven at 150°C. […] The autoclave stability was determined by placing a sample of cured gel composition in an autoclave at 121°C. with a pressure of 2.1 kg/cm².
(§3) A composition was prepared by blending 67 parts of Acrylamide-polymer D, 25 parts of 1,4 -butanediol diacrylate, 3 parts of 1-hydroxy-2-methyl-1-phenylpropan-1-one, 5 parts of an adhesion additive, 100 ppm of phenothiazine and 100 ppm of the monomethyl ether of hydroquinone. […] The ionic purity was determined and there was less than 2 ppm of sodium and less than 2 ppm potassium. […]

[2] = Autoclave stability of cured composition at 121°C (durometer); conditions: in Acrylamide-polymer B; after 20 hours in an autoclave at 12 1°C and 15 psi
Excerpt: as §1, §2, §3

[3] = Durometer hardness of cured composition (Shore scales); conditions: in Acrylamide-polymer B; 0.25 inch thick section of cured material
Excerpt: as §1, §2, §3

Row | SMILES | DUROMETER HEAT AGED [1] [Shore OO] | DUROMETER AUTOCLAVE [2] [Shore OO] | DUROMETER INITIAL [3] [Shore OO]
1 | O=C(c1ccccc1)c1ccccc1 [P-4, benzophenone] | 43 | 44 | 44
2 | CCOC(OCC)C(=O)c1ccccc1 [P-2, diethoxyacetophenone] | 30 | 47 | 42
3 | CC(C)(O)C(=O)c1ccccc1 [P-1, 2 hydroxy-2-methylphenylpropan-1-one] | 36 | 39 | 45
4 | O=C(c1ccccc1)C1(O)CCCCC1 [P-3, (1-hydroxycyclohexyl)phenylmethanone] | 42 | 40 | 41

— patent EP0400785A2, “Ultraviolet curable phenyl and acrylamide group-containing silicone compositions” (DOW CORNING CORPORATION, priority 1989, dated 1990)
